Measurements taken from patent US11241437B2, “Heterocyclic compounds, preparation methods and uses thereof” (InventisBio Co., Ltd., priority 2019, dated 2022).
≈ marks a conversion by molar mass, not a printed value. Where two headings read alike, the source gives them in different places.

Experiments:
Format in all cases: physicochemical
[1] = Solubility of Compound 1 solid forms in bio-relevant media and water
Experimental: Solubility Studies: Solubility of Form IV was tested in three bio-relevant media (Simulated Gastric Fluid (SGF), Fasted State Simulated Intestinal Fluid (FaSSIF), and Fed State Simulated Intestinal Fluid (FeSSIF)) and water. […] Form IV (˜10 mg) was weighed into 2 mL of four media to make suspensions respectively, and about 10 mg of the amorphous starting material was also added into 2 mL of FaSSIF. Then all suspensions were shaken at 37° C. with 200 rpm for up to 24 hours. At 0.5, 2 and 24 hours, about 0.7 mL of each suspension was filtered. The filtrate was analyzed by HPLC and pH meter, and the residual solids were also checked by XRPD at 24 hours.

[2] = Stability studies of Form IV of Compound 1 (HPLC and XRPD)
Experimental: Method 1. a representative HPLC method is shown below, which can be used, for example, to analyze the purity, solubility, and stability of Compound 1 herein.
Stability Studies: Appropriate amounts of Form IV were put at 40° C./75% RH, 60° C. and 25±2° C./92.5% RH conditions for 14 days. Then the sample was tested by HPLC and XRPD to determine the chemical and physical stability.

[3] = Dynamic moisture sorption analysis (DVS) of Form IV of Compound 1
Experimental: Method 1. Used for studies with solid state of Compound 1. Moisture sorption/desorption data was collected on a DVS Intrinsic (SMS, UK). The sample was placed into a tared sample chamber and automatically weighed. The sample was dried at 40° C. until the dm/dt was less than 0.002% and cooled to 25° C. Set the instrument parameters as below.

[4] = Mechanical stability (grinding) of Form IV of Compound 1; conditions: ground for 2 and 5 min
Experimental: Form IV was also tested for mechanical stability. In this case, appropriate amount of Form IV was ground for 2 and 5 min, and then tested by XRPD to check the crystal form.

[5] = Polymorph characterization summary of Compound 1 forms (form stability)
From the text: In the polymorph screening, five XRPD Patterns (FIG. 11) were generated, and four forms were identified including 2 anhydrates and 2 hydrates.

[6] = Interconversion studies of solid forms of Compound 1 (slurry); conditions: water or MeOH/water (1/4) at RT and 50° C. for 3 days
Experimental: Interconversion Studies: Equal amounts (˜7 mg) of Form I, II and III were mixed together and then suspended in 0.5 mL of different solvents at room temperature or 50° C., respectively. Residual solids were collected by filtration and characterized at appropriate time. Additionally, Form IV (˜12 mg) was slurried in 0.5 ml, water or MeOH/water (1/4) at RT or 50° C. for 3 days. Residual solids were collected by filtration and analyzed by XRPD.

Structure (SMILES): C=CC(=O)N1C[C@H](C)N(c2nc(=O)n(-c3c(C4CC4)ncnc3C3CC3)c3nc(-c4c(N)cccc4F)c(Cl)cc23)C[C@H]1C [Form IV]
- Solubility ([1]; FaSSIF, 37° C., 0.5 h): 17 µg/mL (≈ 27.6 µM)
- Solubility ([1]; FaSSIF, 37° C., 2 h): 16 µg/mL (≈ 26 µM)
- Solubility ([1]; FaSSIF, 37° C., 24 h): 21 µg/mL (≈ 34.1 µM)
- XRPD-24 h of residual solids ([1]; FaSSIF, 37° C., 24 h): unchanged
- Solubility in FaSSIF ([1]; FaSSIF, time point not stated): 20 µg/mL (≈ 32.5 µM)
- XRPD-24 h of residual solids ([1]; FeSSIF, 37° C., 24 h): unchanged
- solubility at 0.5 h ([1]; FeSSIF, 37 °C, thermodynamic from solid, 0.5 h): 37 µg/mL (≈ 60.2 µM)
- solubility at 2 h ([1]; FeSSIF, 37 °C, thermodynamic from solid, 2 h): 37 µg/mL (≈ 60.2 µM)
- solubility at 24 h ([1]; FeSSIF, 37 °C, thermodynamic from solid, 24 h): 62 µg/mL (≈ 101 µM)
- XRPD-24 h of residual solids ([1]; SGF, 37° C., 24 h): unchanged
- solubility at 0.5 h ([1]; SGF, 37 °C, simulated gastric fluid, thermodynamic from solid, 0.5 h): 36 µg/mL (≈ 58.5 µM)
- solubility at 2 h ([1]; SGF, 37 °C, simulated gastric fluid, thermodynamic from solid, 2 h): 34 µg/mL (≈ 55.3 µM)
- solubility at 24 h ([1]; SGF, 37 °C, simulated gastric fluid, thermodynamic from solid, 24 h): 36 µg/mL (≈ 58.5 µM)
- Solubility ([1]; SGF, FeSSIF, water, 37 °C, thermodynamic from solid, media other than FaSSIF (SGF, FeSSIF, water), read-out: Solubility in other media): < 70 µg/mL
- XRPD-24 h of residual solids ([1]; Water, 37° C., 24 h): unchanged
- solubility at 0.5 h ([1]; water, 37 °C, thermodynamic from solid, 0.5 h): 14 µg/mL (≈ 22.8 µM)
- solubility at 2 h ([1]; water, 37 °C, thermodynamic from solid, 2 h): 11 µg/mL (≈ 17.9 µM)
- solubility at 24 h ([1]; water, 37 °C, thermodynamic from solid, 24 h): 9 µg/mL (≈ 14.6 µM)
- Purity ([2]; 40° C./75% RH, 7 D): 98.21 Area %
- Purity ([2]; 40° C./75% RH, 14 D): 98.12 Area %
- Physical stability, XRPD ([2]; 40° C./75% RH, 60° C. and 25° C./92.5% RH, 14 days): XRPD remained unchanged
- Chemical stability, impurities ([2]; 60° C. for 2 weeks): a new impurity was detected
- Purity ([2]; 60° C., 7 D): 97.98 Area %
- Purity ([2]; 60° C., 14 D): 97.88 Area %
- Purity-initial ([2]; initial, before storage): 98.30 Area %
- Crystal form after DVS testing [3]: remained unchanged
- Hygroscopicity (DVS) ([3]; 25° C.): slightly hygroscopic
- Water uptake (DVS) ([3]; at 80% RH, 25° C.): about 1.37%
- Crystal form after grinding (XRPD) [4]: no new form was generated
- Stability of the solid form [5]: Stable form, slightly
- Form after slurry in aqueous systems (XRPD) [6]: remained unchanged
